# Assay results from paper PMC3880967, “Isolation of a novel alkaline-stable lipase from a metagenomic library and its specific application for milkfat flavor production” (Microbial Cell Factories, 2014).
# Target: T1, Est_p6 (uncultured bacterium, UniProt D7NJ22)
# T1 construct: predicted signal peptide (residues 1-26) removed, from residue 27 of 357; C-terminal 6xHis tag kept (pET-28a, NcoI/HindIII); E. coli BL21(DE3); Ni-NTA; 36 kDa by SDS-PAGE
# Experiment: spectrophotometric pNP release at […] nm, Lineweaver-Burk
# Type: biochemical
# Conditions: 50 mM Tris-HCl pH 8.60, 50°C, 4% ethanol
# T1 sequence (D7NJ22 27-357 limits assumed): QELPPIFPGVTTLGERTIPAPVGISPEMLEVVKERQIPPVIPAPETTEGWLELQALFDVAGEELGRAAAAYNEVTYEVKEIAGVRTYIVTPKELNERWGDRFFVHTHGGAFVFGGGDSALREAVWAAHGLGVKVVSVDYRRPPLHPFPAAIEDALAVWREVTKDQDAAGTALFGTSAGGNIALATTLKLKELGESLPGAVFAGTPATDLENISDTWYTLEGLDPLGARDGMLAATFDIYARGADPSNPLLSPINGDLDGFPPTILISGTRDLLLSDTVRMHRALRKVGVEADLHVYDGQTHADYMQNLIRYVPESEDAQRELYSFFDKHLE
row,Km [µM],Compound
1,2640,"CC(=O)Oc1ccc([N+](=O)[O-])cc1 [C2, pNP acetate]"
2,1150,"CCCC(=O)Oc1ccc([N+](=O)[O-])cc1 [C4, pNP butyrate]"
3,322,"CCCCCCCC(=O)Oc1ccc([N+](=O)[O-])cc1 [C8, pNP caprylate]"
4,1280,"CCCCCCCCCC(=O)Oc1ccc([N+](=O)[O-])cc1 [C10, pNP caprate]"
5,149,"CCCCCCCCCCCC(=O)Oc1ccc([N+](=O)[O-])cc1 [C12, pNP laurate]"
